This note sets out measurements from patent US6727237B2, “Inhibitors of bacterial NAD synthetase” (priority 1998, dated 2004).

SMILES strings stand for the structures. Converted amounts (≈) assume the structure as drawn. Where two headings read alike, the source gives them in different places.

Experiment [1] has as its system Staphylococcus epidermitis. In words: Bacterial growth inhibition screen in LB media (absorbance 595 nm), percent inhibition. The following applies: for % Inhibition: S. epidermitis; for inhibition of growth at 10 µM / inhibition of growth at 100 µM: Staphylococcus, read-out: % Inhibition, S. epidermitis.
Experiment [2] deals with Staphylococcus epidermitis. In words: Dose response of bacterial growth inhibition, MIC85. The following applies: for MIC85: minimum inhibitory concentration to achieve 85% inhibition, S. epidermitis; for MIC: Staphylococcus, read-out: MIC85.
For experiment [3], the target named is T1, bacterial NAD synthetase enzyme (Bacillus subtilis, UniProt P08164).
T1 sequence (P08164 2-272 limits assumed): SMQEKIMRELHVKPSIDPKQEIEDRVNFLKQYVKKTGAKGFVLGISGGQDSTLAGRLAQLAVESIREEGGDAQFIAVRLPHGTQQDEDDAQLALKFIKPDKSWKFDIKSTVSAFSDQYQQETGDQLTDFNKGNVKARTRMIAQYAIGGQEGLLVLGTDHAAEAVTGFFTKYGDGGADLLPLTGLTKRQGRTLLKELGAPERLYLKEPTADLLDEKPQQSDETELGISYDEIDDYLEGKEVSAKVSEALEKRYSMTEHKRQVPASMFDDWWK
Nature of the experiment: biochemical. In kind it is biochemical.

Setting [4] is: compound at 0.2 mM (Table 312A).
Setting [5] is: lead compounds (Table 318A), read-out: IC 50.

For `O=C(OCCCCCCCCCn1ccc2cc([N+](=O)[O-])ccc21)c1cnc2ccccc2c1` [Compound 835], the “% Inhibition” value in experiment [1] (concentration screened 10 uM) turned out to be 99.03%. In addition, in experiment [2], the MIC85 is 3.7 µM (≈ 1.7 µg/mL).
The corresponding values for `CN(C)c1cccc(C(=O)OCCCCCCCCn2ccc3cc([N+](=O)[O-])ccc32)c1` [Compound 840] are 98.77% and 10 µM (≈ 4.38 µg/mL).
For the compound `CN(C)c1cccc(C(=O)OCCCCCCCn2ccc3cc([N+](=O)[O-])ccc32)c1` [Compound 839], the “% Inhibition” value in experiment [1] (concentration screened 10 uM) is reported as 99.35%. In experiment [2], this compound yielded an MIC85 of 30 µM (≈ 12.7 µg/mL).
In the same order, the values of `COc1ccc2c(ccn2CCCCCOC(=O)c2cc3ccccc3[n+](C)c2)c1` [Compound 821] are 95.02% and 30 µM.
With `C[N+](C)(C)c1ccc(CC(=O)OCCCCCn2ccc3cc(OCc4ccccc4)ccc32)cc1` [Compound 746], the inhibition of growth at 10 µM in experiment [1] (concentration screened 10 uM) came to 96.8%. Moreover, the MIC in experiment [2] was determined as 10 µM. In experiment [3], the IC50 came out at 50 µM and at 100 µM the inhibition was 91.3%.
Take `COc1ccc2[nH]c(CCCCC[n+]3ccccc3)cc2c1` [Compound 374]: the “% Inhibition” value in experiment [1] (concentration screened 100 uM) came to 100.00%; in experiment [3] (compound at 0.1 mM (Table 314)), 31.84%. Also, the MIC85 in experiment [2] was determined as 30 µM.
The corresponding values for `COc1ccc2[nH]c(CCCCCC[n+]3ccccc3)cc2c1` [Compound 375] are 100.00%, 60.14% and 30 µM.
Regarding `C[N+](C)(C)c1cccc(C(=O)OCCCCCCCn2ccc3cc(OCc4ccccc4)ccc32)c1` [Compound 808], the “% Inhibition” value in experiment [1] (concentration screened 10 uM) amounted to 98.06%. In experiment [2], this compound came in with an MIC85 of 30 µM.
In the case of `Cc1ccc2[nH]c(CCCCC[n+]3ccccc3)cc2c1` [Compound 296], the “% Inhibition” value in experiment [1] (concentration screened 10 uM) is recorded as 87.47%; in experiment [3] (setting [4]) it was 16.79%. This compound gave an MIC85 in experiment [2] of 30 µM.
In the case of `C[N+](C)(C)c1ccc(CC(=O)OCCCCCCCn2ccc3cc(OCc4ccccc4)ccc32)cc1` [Compound 748], in experiment [1] (concentration screened 100 uM), the inhibition of growth at 100 µM came out at 98.4%. For the same compound, the MIC in experiment [2] turned out to be 10 µM. The compound further returned an inhibition at 100 µM in experiment [3] of 98.4%. The IC50 in experiment [3] (setting [5]) stood at 30 µM.
On to `COc1ccc2c(ccn2CCCCCCCOC(=O)c2cc3ccccc3[n+](C)c2)c1` [Compound 823], for which the “% Inhibition” value in experiment [1] (concentration screened 10 uM) came to 97.03%. Besides, the MIC85 in experiment [2] was 10 µM.
Turning to `COC(=O)c1ccc[n+](CCCCCCCCn2ccc3cc([N+](=O)[O-])ccc32)c1` [Compound 13], in experiment [1] (concentration screened 10 uM), the inhibition of growth at 10 µM was determined as 98.5%. Moreover, in experiment [2], the MIC came to 30 µM. In experiment [3], this compound had an IC50 of 50 µM and an inhibition at 200 µM of 80.8%.
As to `COc1ccc2c(ccn2CCCCCCCCOC(=O)Cc2ccc([N+](C)(C)C)cc2)c1` [Compound 744], the entries for the “% Inhibition” value in experiment [1] (concentration screened 10 uM) and in experiment [3] (setting [4]) were 97.74% and 95.85%, respectively. This compound gave an MIC85 in experiment [2] of 30 µM.
With `COC(=O)C=Cc1cn(CCCCCCC[n+]2ccccc2)c2ccccc12` [Compound 261], the “% Inhibition” value in experiment [1] (concentration screened 10 uM) is reported as 92.51%. In experiment [2], this compound came in with an MIC85 of 30 µM.
In the same order, the values of `C[n+]1cc(C(=O)OCCCCCn2ccc3cc(OCc4ccccc4)ccc32)cc2ccccc21` [Compound 826] are 92.57% and 3.7 µM.
`C[n+]1cccc(C(=O)OCCCCCCCn2ccc3cc(OCc4ccccc4)ccc32)c1` [Compound 768]: the inhibition of growth at 100 µM in experiment [1] (concentration screened 100 uM) turned out to be 96.1%. In experiment [2], the MIC came out at 10 µM. Moreover, in experiment [3], the IC50 turned out to be 30 µM and 100 µM produced 98.6% inhibition.
Consider `COC(=O)c1cc2cc(OCc3ccccc3)ccc2n1CCC[n+]1ccccc1` [Compound 227], for which the “% Inhibition” value in experiment [1] (concentration screened 10 uM) worked out at 96.46%; in experiment [3] (setting [4]) it was 91.19%. Besides, the MIC85 in experiment [2] turned out to be 30 µM.
Take `COC(=O)c1ccc2ccn(CCCCCCCCC[n+]3cccc(C(=O)OC)c3)c2c1` [Compound 222]: the results for the “% Inhibition” value in experiment [1] (concentration screened 10 uM) and in experiment [3] (setting [4]) were 98.50% and 52.98%, respectively. Besides, the MIC85 in experiment [2] is 30 µM.
`FC(F)(F)c1ccc2cc(CCC[n+]3ccccc3)[nH]c2c1` [Compound 288]: the “% Inhibition” value in experiment [1] (concentration screened 10 uM) is recorded as 99.65%; in experiment [3] (compound at 0.1 mM (Table 314)) it was 42.38%. The same compound came in with an MIC85 in experiment [2] of 30 µM.
Take `CN(C)c1ccc(CC(=O)OCCCCCCCCCn2ccc3cc([N+](=O)[O-])ccc32)cc1` [Compound 853]: the figures for the “% Inhibition” value in experiment [1] (concentration screened 10 uM) and in experiment [3] (compound at 0.1 mM (Table 314)) were 98.58% and 73.46%, respectively. Moreover, the MIC85 in experiment [2] was 30 µM (≈ 14 µg/mL). Moreover, in experiment [3] (setting [5]), the IC50 amounted to 45 µM.
As to `COC(=O)c1cc2cc(OC)ccc2n1CCCCCCCCC[n+]1ccccc1` [Compound 246], the “% Inhibition” value is reported as 90.26% in experiment [1] (concentration screened 10 uM) and 92.19% in experiment [3] (setting [4]). Besides, the MIC85 in experiment [2] amounted to 30 µM.
For `COC(=O)c1ccc2c(ccn2CCCCCCCCC[n+]2cc(C(=O)OC)cc3ccccc32)c1` [Compound 174], the inhibition of growth at 10 µM in experiment [1] (concentration screened 10 uM) was 98.7%. Further, the MIC in experiment [2] amounted to 10 µM. In experiment [3], this compound registered an IC50 of 40 µM.
For `CN(C)c1cccc(C(=O)OCCCCCCCCCn2ccc3cc([N+](=O)[O-])ccc32)c1` [Compound 841], in experiment [1] (concentration screened 10 uM), the “% Inhibition” value is listed as 98.90%. In experiment [2], this compound showed an MIC85 of 10 µM (≈ 4.52 µg/mL).
`C[n+]1cccc(C(=O)OCCCCCCn2ccc3cc(OCc4ccccc4)ccc32)c1` [Compound 767]: the inhibition of growth at 100 µM in experiment [1] (concentration screened 100 uM) was 91.8%. The MIC in experiment [2] amounted to 10 µM. Besides, in experiment [3], the IC50 came to 60 µM and the inhibition at 100 µM was 96%.
In the case of `c1ccc2c[n+](CCCCCc3cc4ccccc4[nH]3)ccc2c1` [Compound 500], the “% Inhibition” value is listed as 99.14% in experiment [1] (concentration screened 100 uM) and 18.25% in experiment [3] (compound at 0.1 mM (Table 314)). For the same compound, the MIC85 in experiment [2] is 30 µM.
As for `COC(=O)c1cc2cc(OCc3ccccc3)ccc2n1CCCCC[n+]1ccccc1` [Compound 228], the inhibition of growth at 100 µM in experiment [1] (concentration screened 100 uM) is 96.8%. Further, the MIC in experiment [2] worked out at 10 µM. In experiment [3], this compound gave an IC50 of 60 µM and an inhibition at 100 µM of 95.1%.
Turning to `O=C(OCCCCCCCCn1ccc2cc([N+](=O)[O-])ccc21)c1cnc2ccccc2c1` [Compound 834], the “% Inhibition” value in experiment [1] (concentration screened 10 uM) was 98.13%. In experiment [2], the MIC85 was found to be 3.7 µM (≈ 1.65 µg/mL).
On to `COc1ccc2c(ccn2CCCCCCCOC(=O)Cc2ccc([N+](C)(C)C)cc2)c1` [Compound 743], for which the “% Inhibition” value in experiment [1] (concentration screened 10 uM) is recorded as 97.67%; in experiment [3] (compound at 0.1 mM (Table 314)) it was 94.10%. Also, in experiment [2], the MIC85 came out at 10 µM.
`FC(F)(F)c1ccc2[nH]c(CCCCC[n+]3ccccc3)cc2c1` [Compound 362]: the results for the “% Inhibition” value in experiment [1] (concentration screened 100 uM) and in experiment [3] (compound at 0.1 mM (Table 314)) were 100.00% and 8.31%, respectively. In experiment [2], this compound registered an MIC85 of 30 µM.
In the case of `O=C(OCCCCCn1ccc2cc([N+](=O)[O-])ccc21)c1cnc2ccccc2c1` [Compound 831], the “% Inhibition” value in experiment [1] (concentration screened 10 uM) was determined as 84.68%; in experiment [3] (compound at 0.1 mM (Table 314)), 26.21%. This compound also yielded an MIC85 in experiment [2] of 30 µM (≈ 12.1 µg/mL).
Regarding `Fc1cc(F)c2[nH]c(CCCCC[n+]3ccc4ccccc4c3)cc2c1` [Compound 518], the “% Inhibition” value in experiment [1] (concentration screened 100 uM) stood at 100.00%; in experiment [3] (compound at 0.1 mM (Table 314)), 30.39%. The MIC85 in experiment [2] was 30 µM.
For `COC(=O)c1ccc2ccn(CCCCCCC[n+]3ccccc3)c2c1` [Compound 213], the inhibition of growth at 10 µM in experiment [1] (concentration screened 10 uM) came out at 97.4%. In experiment [2], the MIC amounted to 10 µM. In experiment [3], this compound yielded an IC50 of 65 µM and an inhibition at 200 µM of 90.7%.
Regarding `FC(F)(F)c1ccc2[nH]c(CCCCCC[n+]3ccccc3)cc2c1` [Compound 363], the entries for the “% Inhibition” value in experiment [1] (concentration screened 100 uM) and in experiment [3] (setting [4]) were 100.00% and 75.01%, respectively. In experiment [2], this compound returned an MIC85 of 30 µM.
Consider `C[N+](C)(C)c1cccc(C(=O)OCCCCCCn2ccc3cc(OCc4ccccc4)ccc32)c1` [Compound 807], for which, in experiment [1] (concentration screened 10 uM), the “% Inhibition” value was 97.22%. The compound further displayed an MIC85 in experiment [2] of 10 µM.
In the same order, the values of `C[N+](C)(C)c1cccc(C(=O)OCCCCCCCCn2ccc3cc(OCc4ccccc4)ccc32)c1` [Compound 809] are 99.81% and 10 µM.
The corresponding values for `COc1ccc2c(ccn2CCCCCCCCOC(=O)c2cc3ccccc3[n+](C)c2)c1` [Compound 824] are 97.67% and 3.7 µM.
In the same order, the values of `C[n+]1cc(C(=O)OCCCCCCn2ccc3cc(OCc4ccccc4)ccc32)cc2ccccc21` [Compound 827] are 95.86% and 3.7 µM.
`COc1ccc2[nH]c(CCC[n+]3ccccc3)cc2c1` [Compound 372]: the “% Inhibition” value in experiment [1] (concentration screened 10 uM) was found to be 67.34%. In experiment [2], this compound displayed an MIC85 of 30 µM.
As to `O=C(OCCCCCCCn1ccc2cc([N+](=O)[O-])ccc21)c1cnc2ccccc2c1` [Compound 833], the “% Inhibition” value in experiment [1] (concentration screened 10 uM) turned out to be 98.00%. In addition, the MIC85 in experiment [2] is 10 µM (≈ 4.31 µg/mL).
The corresponding values for `CN(C)c1ccc(CC(=O)OCCCCCCCCn2ccc3cc([N+](=O)[O-])ccc32)cc1` [Compound 852] are 98.58% and 30 µM (≈ 13.5 µg/mL).
For the compound `CN(C)c1ccc(CC(=O)OCCCCCCCn2ccc3cc([N+](=O)[O-])ccc32)cc1` [Compound 851], in experiment [1] (concentration screened 10 uM), the “% Inhibition” value is 98.90%. Moreover, the MIC85 in experiment [2] was determined as 30 µM (≈ 13.1 µg/mL).
The corresponding values for `COc1ccc2c(ccn2CCCCCCCCOC(=O)c2cccc([N+](C)(C)C)c2)c1` [Compound 804] are 97.29% and 30 µM.
